# Reference: patent US10597674B2, “HPPD variants and methods of use” (BASF Agricultural Solutions Seed, US LLC, priority 2015, dated 2020)
# Experiments:
# [1] = tested on: E. coli cells expressing an HPPD polypeptide; test: Brown color bioassay in liquid culture, residual brown color formation (BCF), OD440 after 96 hours; assay type: cell-based
# In short: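 E. coli expressing HPPD variants were grown at 30 degrees Celsius from OD600 0.3-0.5 in LB with 5 mM HPP, with or without herbicide (e.g. Cmpd. 1, 1000 μM). After 96 hours, supernatant OD440 was measured; residual brown colour formation compares pigment with and without inhibitor.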
# [2] = tested on: transgenic soybean T0 events; test: Greenhouse spray test of T0 soybean events, herbicide tolerance rating 0-3; assay type: in vivo; details: wild-type soybean plants, 300 g AI/ha, 5 days after spraying
# Protocol: Tolerant green shoots were transferred to rooting media or grafted. Rooted plantlets were transferred to the greenhouse after an acclimation period. Plants containing the transgene were then sprayed with HPPD inhibitor herbicides, as for example with mesotrione at a rate of 300-600 g AI/ha, or with Cmpd. […] Five to ten days after the application, the symptoms due to the application of the herbicide were evaluated and compared to the symptoms observed on wild-type plants under the same conditions.
# For example, T0 soybean plants having a “plant expression cassette”, which includes an HPPD inhibitor tolerant HPPD polypeptide of the present invention, were tested towards the tolerance of Cmpd. 1.
# Prior greenhouse trials with the transgenic plants, soybean transformants were routinely analyzed for the expression and presence of the transgenes using the ELISA protein detection method (see detailed description under item D and H). Only plants recovering in the selection media and having a detectable HPPD transgene protein expression were used for the herbicide tolerance analysis. A DeVries Tracker Sprayer was calibrated prior to each spraying. The chemical formulation used for Cmpd. 1 was supplemented with ammonium sulfate and methylated rape seed oil. Spray tests were conducted with a concentration, which equals to 300 grams AI per hectare (300 g AI/ha). Tolerance was evaluated 5 days after spraying. […] A rating of “3” was assigned to plants showing good tolerance, i.e. less than 10% of the leaf area from the top three trifoliate leaves showing chlorosis or only very slight bleaching.
structure (smiles),measurement,setting,value
"CSc1c(C(F)(F)F)ccc(C(=O)Nc2nnnn2C)c1Cl [Cmpd. 1, 2-chloro-3-(methylsulfanyl)-N-(1-methyl-1H-tetrazol-5-yl)-4-(trifluoromethyl)benzamide, reference compound]",Control BCF OD440nm,"[1]; brown color formation in absence of Cmpd. 1, culture supernatant after 96 hours, 5 mM HPP",2.66
same,Residual BCF OD440nm [%],"[1]; brown color formation with Cmpd. 1 (1000 μM) relative to without, after 96 hours",15%
same,leaf damage of the top two trifoliate leaves,[2],more than 95%
